14 compounds from PubChem BioAssay AID256 (DTP/NCI, 2004) can be followed below.

Inconclusive results and toxic doses are left out.

For this assay, the system named is CD2F1 mice, L1210 leukemia ip, survival T/C. Kind of assay: NCI In Vivo Anticancer Drug Screen. Data for tumor model L1210 Leukemia (intraperitoneal) in CD2F1 (CDF1) mice. The note with it: higher = longer survival. The essentials:
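Antitumor effect is scored in animals hosting a serially transplanted tumor. Values compare compound-dosed animals against vehicle-only controls as a simple quotient.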

Setting [1] is: endpoint: mean survival time, dose: 100.0 mg/kg/injection, schedule: Q01DX009 (ip), vehicle: saline.
[2] abbreviates: endpoint: mean survival time, dose: 200.0 mg/kg/injection, schedule: Q01DX009 (ip), vehicle: saline.
[3] abbreviates: endpoint: mean survival time, dose: 100.0 mg/kg/injection, schedule: Q01DX001 (ip), vehicle: saline with Tween-80.
Where [4] appears, read: endpoint: mean survival time, dose: 200.0 mg/kg/injection, schedule: Q01DX001 (ip), vehicle: saline with Tween-80.
Where [5] appears, read: endpoint: mean survival time, dose: 100.0 mg/kg/injection, schedule: Q04DX003 (ip), vehicle: saline with Tween-80.
Where [6] appears, read: endpoint: mean survival time, dose: 200.0 mg/kg/injection, schedule: Q04DX003 (ip), vehicle: saline with Tween-80.

Take `CC(=O)Nc1ncc2ccccc2c1-c1ccc(NC(=O)CN(CCO)CCO)cc1`: the T/C (endpoint: mean survival time, dose: 25.0 mg/kg/injection, schedule: Q04DX003 (ip), vehicle: other) is 104 % of control; the T/C (endpoint: mean survival time, dose: 50.0 mg/kg/injection, schedule: Q04DX003 (ip), vehicle: other) was 108 % of control; the T/C (endpoint: mean survival time, dose: 100.0 mg/kg/injection, schedule: Q04DX003 (ip), vehicle: other) was 100 % of control; the T/C (endpoint: mean survival time, dose: 200.0 mg/kg/injection, schedule: Q04DX003 (ip), vehicle: other) was 96 % of control; the T/C (endpoint: mean survival time, dose: 400.0 mg/kg/injection, schedule: Q04DX003 (ip), vehicle: other) was 104 % of control.
In the case of `COc1ccc2ccccc2c1C(=O)CCCc1ccccc1`, the T/C is, setting by setting: (endpoint: mean survival time, dose: 12.5 mg/kg/injection, schedule: Q01DX009 (ip), vehicle: water) 97 % of control; (endpoint: mean survival time, dose: 25.0 mg/kg/injection, schedule: Q01DX009 (ip), vehicle: water) 96 % of control; (endpoint: mean survival time, dose: 50.0 mg/kg/injection, schedule: Q01DX009 (ip), vehicle: water) 97 % of control; (endpoint: mean survival time, dose: 100.0 mg/kg/injection, schedule: Q01DX009 (ip), vehicle: water) 96 % of control; (endpoint: mean survival time, dose: 200.0 mg/kg/injection, schedule: Q01DX009 (ip), vehicle: water) 96 % of control.
Take `O=P(OCCCCl)(OCCCCl)C(Cl)Cl`: the T/C is 102 % of control (endpoint: mean survival time, dose: 100.0 mg/kg/injection, schedule: Q01DX001 (ip), vehicle: saline); 102 % of control (endpoint: mean survival time, dose: 200.0 mg/kg/injection, schedule: Q01DX001 (ip), vehicle: saline); 103 % of control (endpoint: mean survival time, dose: 400.0 mg/kg/injection, schedule: Q01DX001 (ip), vehicle: saline).
Take `S=c1nn[nH]n1-c1ccccc1`: the T/C by setting is: under setting [1], 103 % of control; under setting [2], 109 % of control.
As for `NC1=CC(=O)C(c2ccccc2)C1=O` (stereo unspecified), the T/C by setting is: under setting [3], 100 % of control; under setting [4], 92 % of control; (endpoint: mean survival time, dose: 400.0 mg/kg/injection, schedule: Q01DX001 (ip), vehicle: saline with Tween-80) 92 % of control.
`CS(C)=O.[Cl-].[Cl-].[NH-]CC(O)CN(Cc1ccccc1)CC(O)CN.[Pt]` (stereo unspecified): the T/C was 104 % of control (endpoint: median survival time, dose: 10.0 mg/kg/injection, schedule: Q04DX003 (ip), vehicle: saline); 109 % of control (endpoint: median survival time, dose: 20.0 mg/kg/injection, schedule: Q04DX003 (ip), vehicle: saline); 110 % of control (endpoint: median survival time, dose: 40.0 mg/kg/injection, schedule: Q04DX003 (ip), vehicle: saline); 86 % of control (endpoint: median survival time, dose: 80.0 mg/kg/injection, schedule: Q04DX003 (ip), vehicle: saline).
Turning to `Cc1cccc(N=Cc2ccccc2O)c1`, the T/C is 88 % of control under setting [3] and 97 % of control under setting [4].
Regarding `CC1=C(N2CC2C)C(=O)c2c(COC(N)=O)c3n(c2C1=O)CC1NC31` (stereo unspecified), the T/C is 111 % of control (endpoint: mean survival time, dose: 2.5 mg/kg/injection, schedule: Q01DX001 (ip), vehicle: distilled water + Tween-80); 101 % of control (endpoint: mean survival time, dose: 5.0 mg/kg/injection, schedule: Q01DX001 (ip), vehicle: distilled water + Tween-80); 111 % of control (endpoint: mean survival time, dose: 10.0 mg/kg/injection, schedule: Q01DX001 (ip), vehicle: distilled water + Tween-80); 122 % of control (endpoint: mean survival time, dose: 20.0 mg/kg/injection, schedule: Q01DX001 (ip), vehicle: distilled water + Tween-80).
For the compound `CCC(=O)c1cc2c(c3c1CCCC3)CCCC2`, the T/C reads like this: (endpoint: mean survival time, dose: 25.0 mg/kg/injection, schedule: Q01DX009 (ip), vehicle: other) 104 % of control; (endpoint: mean survival time, dose: 50.0 mg/kg/injection, schedule: Q01DX009 (ip), vehicle: other) 98 % of control; (endpoint: mean survival time, dose: 100.0 mg/kg/injection, schedule: Q01DX009 (ip), vehicle: other) 104 % of control.
For `S=C(S)NCCNC(=S)S`, the T/C was 102 % of control under setting [1]; 100 % of control under setting [2]; 90 % of control (endpoint: mean survival time, dose: 400.0 mg/kg/injection, schedule: Q01DX009 (ip), vehicle: saline).
Take `C[n+]1ccc(Nc2ccc(NC(=O)c3ccc(Nc4cc[n+](C)c5ccc(N)cc45)cc3N)cc2)cc1`: the T/C (endpoint: mean survival time, dose: 2.0 mg/kg/injection, schedule: Q01DX009 (ip), vehicle: water) is 205 % of control and the T/C (endpoint: mean survival time, dose: 4.0 mg/kg/injection, schedule: Q01DX009 (ip), vehicle: water) is 316 % of control.
In the case of `O=C(CN1CC1)NCCCCCCCNC(=O)CN1CC1`, the T/C is, setting by setting: (endpoint: mean survival time, dose: 14.6 mg/kg/injection, schedule: Q01DX001 (ip), vehicle: carboxymethylcellulose (CMC)) 158 % of control; (endpoint: mean survival time, dose: 50.0 mg/kg/injection, schedule: Q01DX001 (ip), vehicle: carboxymethylcellulose (CMC)) 150 % of control.
As for `O=[N+]([O-])c1ccc(Cl)c2ncccc12`, the T/C is 101 % of control under setting [5] and 104 % of control under setting [6].
`CCCCCCCCCCCCCCCCOc1ccccc1CNc1cc(Cl)ccc1Cl`: the T/C was 102 % of control (endpoint: mean survival time, dose: 100.0 mg/kg/injection, schedule: Q01DX009 (ip), vehicle: saline with Tween-80); 95 % of control under setting [5]; 96 % of control (endpoint: mean survival time, dose: 200.0 mg/kg/injection, schedule: Q01DX009 (ip), vehicle: saline with Tween-80); 95 % of control under setting [6]; 93 % of control (endpoint: mean survival time, dose: 400.0 mg/kg/injection, schedule: Q01DX009 (ip), vehicle: saline with Tween-80); 89 % of control (endpoint: mean survival time, dose: 400.0 mg/kg/injection, schedule: Q04DX003 (ip), vehicle: saline with Tween-80).
